# Assays:
# [1] = test system: Enterococcus sp.; assay: Antibacterial activity against Enterococcus sp. HK14365/08 after 24 hrs by broth microdilution method; assay type: functional; details: HK14365/08, 24 h
# [2] = test system: Escherichia coli; assay: Antibacterial activity against Escherichia coli ATCC 8739 after 24 hrs by broth microdilution method; assay type: functional; details: ATCC 8739, 24 h
# [3] = test system: Trichophyton mentagrophytes; assay: Antifungal activity against Trichophyton mentagrophytes 445 after 120 hrs by broth microdilution method; assay type: functional; details: Trichophyton mentagrophytes, 445, 120 h
# [4] = test system: Candida albicans; assay: Antifungal activity against Candida albicans ATCC 44859 after 24 hrs by broth microdilution method; assay type: functional; details: ATCC 44859, 24 h
# [5] = test system: Enterococcus sp.; assay: Antibacterial activity against Enterococcus sp. HK14365/08 after 48 hrs by broth microdilution method; assay type: functional; details: HK14365/08, 48 h
# [6] = Selectivity index, ratio of IC50 for human HepG2 cells to MIC for Mycobacterium tuberculosis; assay type: toxicity; details: read-out: Selectivity Index
# [7] = test system: Pichia kudriavzevii; assay: Antifungal activity against Candida krusei E28 after 48 hrs by broth microdilution method; assay type: functional; details: E28, 48 h
# [8] = test system: Mycobacterium kansasii; assay: Antimycobacterial activity against Mycobacterium kansasii 6509/96 clinical isolate after 14 days by micromethod; assay type: functional; details: 6509/96, 336 h
# [9] = test system: Escherichia coli; assay: Antibacterial activity against Escherichia coli ATCC 8739 after 48 hrs by broth microdilution method; assay type: functional; details: ATCC 8739, 48 h
# [10] = test system: Candida albicans; assay: Antifungal activity against Candida albicans ATCC 44859 after 48 hrs by broth microdilution method; assay type: functional; details: ATCC 44859, 48 h
# [11] = Cytotoxicity against human HuH7 cells assessed as cell viability at 30 uM after 48 hrs by MTS assay relative to control; assay type: cell-based, Huh-7; details: read-out: Activity
# [12] = test system: Mycobacterium kansasii; assay: Antimycobacterial activity against Mycobacterium kansasii 6509/96 clinical isolate after 21 days by micromethod; assay type: functional; details: 6509/96, 504 h
# [13] = test system: Lichtheimia corymbifera; assay: Antifungal activity against Absidia corymbifera 272 after 48 hrs by broth microdilution method; assay type: functional; details: Lichtheimia corymbifera, 272, 48 h
# [14] = test system: Mycobacterium kansasii; assay: Antimycobacterial activity against Mycobacterium kansasii CNCTC My 235/80 after 21 days by micromethod; assay type: functional; details: CNCTC My 235/80, 504 h
# [15] = test system: Nakaseomyces glabratus; assay: Antifungal activity against Candida glabrata 20/I after 48 hrs by broth microdilution method; assay type: functional
# [16] = test system: Trichophyton mentagrophytes; assay: Antifungal activity against Trichophyton mentagrophytes 445 after 72 hrs by broth microdilution method; assay type: functional; details: Trichophyton mentagrophytes, 445, 72 h
# [17] = test system: Trichosporon asahii; assay: Antifungal activity against Trichosporon asahii 1188 after 48 hrs by broth microdilution method; assay type: functional; details: Trichosporon asahii, 1188, 48 h
# [18] = test system: Staphylococcus aureus; assay: Antibacterial activity against methicillin-resistant Staphylococcus aureus HK5996/08 after 48 hrs by broth microdilution method; assay type: functional; details: HK5996/08, 48 h
# [19] = test system: Aspergillus fumigatus; assay: Antifungal activity against Aspergillus fumigatus 231 after 48 hrs by broth microdilution method; assay type: functional; details: Aspergillus fumigatus, 231, 48 h
# [20] = test system: Candida tropicalis; assay: Antifungal activity against Candida tropicalis 156 after 24 hrs by broth microdilution method; assay type: functional; details: Candida tropicalis, 156, 24 h
# [21] = test system: Staphylococcus aureus; assay: Antibacterial activity against Staphylococcus aureus ATCC 6538 after 24 hrs by broth microdilution method; assay type: functional; details: ATCC 6538, 24 h
# [22] = test system: Aspergillus fumigatus; assay: Antifungal activity against Aspergillus fumigatus 231 after 24 hrs by broth microdilution method; assay type: functional; details: Aspergillus fumigatus, 231, 24 h
# [23] = test system: Mycobacterium kansasii; assay: Antimycobacterial activity against Mycobacterium kansasii 6509/96 clinical isolate after 7 days by micromethod; assay type: functional; details: 6509/96, 168 h
# [24] = Cytotoxicity against human A431 cells assessed as cell viability at 30 uM after 48 hrs by MTS assay relative to control; assay type: cell-based, A-431; details: read-out: Activity
# [25] = test system: Pseudomonas aeruginosa; assay: Antibacterial activity against Pseudomonas aeruginosa ATCC 9027 after 48 hrs by broth microdilution method; assay type: functional; details: ATCC 9027, 48 h
# [26] = Cytotoxicity against MDCK cells assessed as cell viability at 30 uM after 48 hrs by MTS assay relative to control; assay type: cell-based, Canis lupus familiaris; details: dog, read-out: Activity
# [27] = test system: Mycobacterium kansasii; assay: Antimycobacterial activity against Mycobacterium kansasii CNCTC My 235/80 after 14 days by micromethod; assay type: functional; details: CNCTC My 235/80, 336 h
# [28] = test system: MDCK; assay: Cytotoxicity against MDCK cells assessed as cell viability after 48 hrs by MTS assay; assay type: cell-based; details: Canis lupus familiaris
# [29] = test system: Pseudomonas aeruginosa; assay: Antibacterial activity against Pseudomonas aeruginosa ATCC 9027 after 24 hrs by broth microdilution method; assay type: functional; details: ATCC 9027, 24 h
# [30] = test system: Klebsiella pneumoniae; assay: Antibacterial activity against extended spectrum beta-lactamase producing Klebsiella pneumoniae HK14368/08 after 48 hrs by broth microdilution method; assay type: functional; details: HK14368/08, 48 h
# [31] = test system: Mycobacterium avium; assay: Antimycobacterial activity against Mycobacterium avium CNCTC My 330/88 after 21 days by micromethod; assay type: functional; details: CNCTC My 330/88, 504 h
# [32] = test system: Candida tropicalis; assay: Antifungal activity against Candida tropicalis 156 after 48 hrs by broth microdilution method; assay type: functional; details: Candida tropicalis, 156, 48 h
# [33] = test system: Nakaseomyces glabratus; assay: Antifungal activity against Candida glabrata 20/I after 24 hrs by broth microdilution method; assay type: functional
# [34] = test system: Staphylococcus aureus; assay: Antibacterial activity against methicillin-resistant Staphylococcus aureus HK5996/08 after 24 hrs by broth microdilution method; assay type: functional; details: HK5996/08, 24 h
# [35] = test system: Pichia kudriavzevii; assay: Antifungal activity against Candida krusei E28 after 24 hrs by broth microdilution method; assay type: functional; details: E28, 24 h
# [36] = test system: Staphylococcus epidermidis; assay: Antibacterial activity against Staphylococcus epidermidis HK6996/08 after 48 hrs by broth microdilution method; assay type: functional; details: HK6996/08, 48 h
# [37] = test system: Lichtheimia corymbifera; assay: Antifungal activity against Absidia corymbifera 272 after 24 hrs by broth microdilution method; assay type: functional; details: Lichtheimia corymbifera, 272, 24 h
# [38] = test system: A-431; assay: Cytotoxicity against human A431 cells assessed as cell viability after 48 hrs by MTS assay; assay type: cell-based; details: A-431, 48 h
# [39] = test system: HepG2; assay: Cytotoxicity against human HepG2 cells assessed as cell viability after 48 hrs by MTS assay; assay type: cell-based; details: HepG2, 48 h
# [40] = test system: Klebsiella pneumoniae; assay: Antibacterial activity against Klebsiella pneumoniae HK11750/08 after 48 hrs by broth microdilution method; assay type: functional; details: HK11750/08, 48 h
# [41] = test system: Klebsiella pneumoniae; assay: Antibacterial activity against extended spectrum beta-lactamase producing Klebsiella pneumoniae HK14368/08 after 24 hrs by broth microdilution method; assay type: functional; details: HK14368/08, 24 h
# [42] = test system: Huh-7; assay: Cytotoxicity against human HuH7 cells assessed as cell viability after 48 hrs by MTS assay; assay type: cell-based; details: Huh-7, 48 h
# [43] = Cytotoxicity against human HepG2 cells assessed as cell viability at 30 uM after 48 hrs by MTS assay relative to control; assay type: cell-based; details: read-out: Activity
# [44] = test system: Mycobacterium tuberculosis; assay: Antimycobacterial activity against Mycobacterium tuberculosis CNCTC My 331/88 after 21 days by micromethod; assay type: functional; details: CNCTC My 331/88, 504 h
# [45] = test system: Mycobacterium kansasii; assay: Antimycobacterial activity against Mycobacterium kansasii CNCTC My 235/80 after 7 days by micromethod; assay type: functional; details: CNCTC My 235/80, 168 h
# [46] = test system: Mycobacterium tuberculosis; assay: Antimycobacterial activity against Mycobacterium tuberculosis CNCTC My 331/88 after 14 days by micromethod; assay type: functional; details: CNCTC My 331/88, 336 h
# [47] = test system: Staphylococcus epidermidis; assay: Antibacterial activity against Staphylococcus epidermidis HK6996/08 after 24 hrs by broth microdilution method; assay type: functional; details: HK6996/08, 24 h
# [48] = test system: Trichosporon asahii; assay: Antifungal activity against Trichosporon asahii 1188 after 24 hrs by broth microdilution method; assay type: functional; details: Trichosporon asahii, 1188, 24 h
# [49] = test system: Klebsiella pneumoniae; assay: Antibacterial activity against Klebsiella pneumoniae HK11750/08 after 24 hrs by broth microdilution method; assay type: functional; details: HK11750/08, 24 h
# [50] = test system: Mycobacterium avium; assay: Antimycobacterial activity against Mycobacterium avium CNCTC My 330/88 after 14 days by micromethod; assay type: functional; details: CNCTC My 330/88, 336 h
# [51] = test system: Staphylococcus aureus; assay: Antibacterial activity against Staphylococcus aureus ATCC 6538 after 48 hrs by broth microdilution method; assay type: functional; details: ATCC 6538, 48 h
smiles,measurement,setting,value
O=[N+]([O-])c1cc(-c2nnc(SCc3ccc(Br)cc3)o2)cc([N+](=O)[O-])c1,MIC,[1],> 125 µM
same,MIC,[2],> 125 µM
same,MIC,[3],> 125 µM
same,MIC,[4],> 125 µM
same,MIC,[5],> 125 µM
same,selectivity ratio,[6],> 1000
same,MIC,[7],> 125 µM
same,MIC,[8],0.03 µM
same,MIC,[9],> 125 µM
same,MIC,[10],> 125 µM
same,"viability at 48 h, 30 µM",[11],143%
same,MIC,[12],0.06 µM
same,MIC,[13],> 125 µM
same,MIC,[14],0.06 µM
same,MIC,[15],> 125 µM
same,MIC,[16],> 125 µM
same,MIC,[17],> 125 µM
same,MIC,[18],> 125 µM
same,MIC,[19],> 125 µM
same,MIC,[20],> 125 µM
same,MIC,[21],> 125 µM
same,MIC,[22],> 125 µM
same,MIC,[23],0.03 µM
same,"viability at 48 h, 30 µM",[24],99%
same,MIC,[25],> 125 µM
same,"viability at 48 h, 30 µM",[26],114%
same,MIC,[27],0.03 µM
same,IC50,[28],> 30 µM
same,MIC,[29],> 125 µM
same,MIC,[30],> 125 µM
same,MIC,[31],125 µM
same,MIC,[32],> 125 µM
same,MIC,[33],> 125 µM
same,MIC,[34],> 125 µM
same,MIC,[35],> 125 µM
same,MIC,[36],> 125 µM
same,MIC,[37],> 125 µM
same,IC50,[38],> 30 µM
same,IC50,[39],> 30 µM
same,MIC,[40],> 125 µM
same,MIC,[41],> 125 µM
same,IC50,[42],> 30 µM
same,"viability at 48 h, 30 µM",[43],113%
same,MIC,[44],0.06 µM
same,MIC,[45],0.03 µM
same,MIC,[46],0.03 µM
same,MIC,[47],> 125 µM
same,MIC,[48],> 125 µM
same,MIC,[49],> 125 µM
same,MIC,[50],125 µM
same,MIC,[51],> 125 µM
COc1ccc(CSc2nnc(-c3cc([N+](=O)[O-])cc([N+](=O)[O-])c3)o2)cc1,MIC,[1],> 500 µM
same,MIC,[2],> 500 µM
same,MIC,[3],> 500 µM
same,MIC,[4],> 500 µM
same,MIC,[5],> 500 µM
same,selectivity ratio,[6],> 1000
same,MIC,[7],> 500 µM
same,MIC,[8],0.25 µM
same,MIC,[9],> 500 µM
same,MIC,[10],> 500 µM
same,"viability at 48 h, 30 µM",[11],118%
same,MIC,[12],0.25 µM
same,MIC,[13],> 500 µM
same,MIC,[14],0.125 µM
same,MIC,[15],> 500 µM
same,MIC,[16],> 500 µM
same,MIC,[17],> 500 µM
same,MIC,[18],> 500 µM
same,MIC,[19],> 500 µM
same,MIC,[20],> 500 µM
same,MIC,[21],> 500 µM
same,MIC,[22],> 500 µM
same,MIC,[23],0.125 µM
same,"viability at 48 h, 30 µM",[24],93%
same,MIC,[25],> 500 µM
same,"viability at 48 h, 30 µM",[26],119%
same,MIC,[27],0.125 µM
same,IC50,[28],> 30 µM
same,MIC,[29],> 500 µM
same,MIC,[30],> 500 µM
same,MIC,[31],4 µM
same,MIC,[32],> 500 µM
same,MIC,[33],> 500 µM
same,MIC,[34],> 500 µM
same,MIC,[35],> 500 µM
same,MIC,[36],> 500 µM
same,MIC,[37],> 500 µM
same,IC50,[38],> 30 µM
same,IC50,[39],> 30 µM
same,MIC,[40],> 500 µM
same,MIC,[41],> 500 µM
same,IC50,[42],> 30 µM
same,"viability at 48 h, 30 µM",[43],126%
same,MIC,[44],0.06 µM
same,MIC,[45],0.125 µM
same,MIC,[46],0.03 µM
same,MIC,[47],> 500 µM
same,MIC,[48],> 500 µM
same,MIC,[49],> 500 µM
same,MIC,[50],4 µM
same,MIC,[51],> 500 µM

# Reference: ChEMBL document CHEMBL4002566, “S-substituted 3,5-dinitrophenyl 1,3,4-oxadiazole-2-thiols and tetrazole-5-thiols as highly efficient antitubercular agents” (Eur J Med Chem, 2017)
